Measurements: US6638935B2, “Heteroary1 derivatives and their use as medicaments” (Zentaris AG, priority 2000, dated 2003)

Which melting point does the source give for `COc1cc(OC)cc(N2CCN(C(=O)c3ccncc3)CC2)c1` [Example 13, 1-(3,5-Dimethoxyphenyl)-4-(4-pyridyl-carbonyl)piperazine] here?
Its melting point is 94 to 96 °C.
